Like-named read-outs stand apart in the source and are kept apart here.
Target: T1, TNF-α (Homo sapiens, UniProt P01375)
T1 construct: purchased R&D 210-TA-020/CF
Test: TNF-α Induced HEK Blue Cellular Assay (secreted alkaline phosphatase expression, QUANTI-Blue)
Type: cell-based
Conditions: HEK Blue TNFα reporter cells, TNF-α 100 μg/ml, 24 hrs at 37° C., inhibition of secreted alkaline phosphatase
In short: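 Compound was serially diluted from […] to 0.5 nM final, then incubated with 10,000 HEK Blue TNFα reporter cells per well and […] TNF-α for 24 h at 37° C. SEAP output was read by QUANTI-Blue absorbance at 620 nm. Inhibition was background-corrected against DMSO controls with and without stimulation, and IC50 was fitted with a 4-parameter logistic equation.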

T1 sequence (P01375 77-233 limits assumed): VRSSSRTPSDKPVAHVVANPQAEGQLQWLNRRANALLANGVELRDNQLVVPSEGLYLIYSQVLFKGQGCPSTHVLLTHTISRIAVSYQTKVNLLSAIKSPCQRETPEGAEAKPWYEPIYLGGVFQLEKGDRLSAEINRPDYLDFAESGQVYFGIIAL

Row | SMILES | IC50 (read-out: IC50 value) | IC50 (IC50 value)
1 | [2H]C([2H])([2H])N1C(=O)c2cccc(OC(F)F)c2[C@H]2C[C@@H]1c1nc3ccc(C#CC4(C)CN(C(=O)C(C)(C)C#N)C4)cc3n12 [Example 157, 3-(3-(((7R,14R)-1-(difluoromethoxy)-6-(methyl-d3)-5-oxo-5,6,7,14-tetrahydro-7,14-methanobenzo[f]benzo[4,5]imidazo[1,2-a][1,4]diazocin-11-yl)ethynyl)-3-methylazetidin-1-yl)-2,2-dimethyl-3-oxopropanenitrile] | 100 to 1000 nM | –
2 | [2H]C([2H])([2H])N1C(=O)c2cccc(OC(F)F)c2[C@H]2C[C@@H]1c1nc3ccc(C#CC4(C)CNC4)cc3n12 [Example 158, (7R,14R)-1-(difluoromethoxy)-6-(methyl-d3)-11-((3-methylazetidin-3-yl)ethynyl)-6,7-dihydro-7,14-methanobenzo[f]benzo[4,5]imidazo[1,2-a][1,4]diazocin-5(14H)-one] | < 100 nM | –
3 | [2H]C([2H])([2H])N1C(=O)c2cccc(OC(F)F)c2[C@H]2C[C@@H]1c1nc3ccc(C#CC4CC(C)(C#N)C4)cc3n12 (stereo partly drawn) [Example 159, 3-(((7R,14R)-1-(difluoromethoxy)-6-(methyl-d3)-5-oxo-5,6,7,14-tetrahydro-7,14-methanobenzo[f]benzo[4,5]imidazo[1,2-a][1,4]diazocin-11-yl)ethynyl)-1-methylcyclobutane-1-carbonitrile] | < 100 nM | –
4 | [2H]C([2H])([2H])N1C(=O)c2cccc(OC(F)F)c2[C@H]2C[C@@H]1c1nc3ccc(C#CCOCC(F)(F)F)cc3n12 [Example 160, (7R,14R)-1-(difluoromethoxy)-6-(methyl-d3)-11-(3-(2,2,2-trifluoroethoxy)prop-1-yn-1-yl)-6,7-dihydro-7,14-methanobenzo[f]benzo[4,5]imidazo[1,2-a][1,4]diazocin-5(14H)-one] | < 100 nM | –
5 | [2H]C([2H])([2H])N1C(=O)c2cccc(OC(F)F)c2[C@H]2C[C@@H]1c1nc3ccc(C#CC4(C)CN(C(=O)C5CC5)C4)cc3n12 [Example 161, (7R,14R)-11-((1-(cyclopropanecarbonyl)-3-methylazetidin-3-yl)ethynyl)-1-(difluoromethoxy)-6-(methyl-d3)-6,7-dihydro-7,14-methanobenzo[f]benzo[4,5]imidazo[1,2-a][1,4]diazocin-5(14H)-one] | < 100 nM | –
6 | [2H]C([2H])([2H])N1C(=O)c2cccc(OC(F)F)c2[C@H]2C[C@@H]1c1nc3ccc(C#CC4(C)CN(S(C)(=O)=O)C4)cc3n12 [Example 162, (7R,14R)-1-(difluoromethoxy)-6-(methyl-d3)-11-((3-methyl-1-(methylsulfonyl)azetidin-3-yl)ethynyl)-6,7-dihydro-7,14-methanobenzo[f]benzo[4,5]imidazo[1,2-a][1,4]diazocin-5(14H)-one] | < 100 nM | –
7 | [2H]C([2H])([2H])N1C(=O)c2cccc(OC(F)F)c2[C@H]2C[C@@H]1c1nc3ccc(C#CCCN(C)C)cc3n12 [Example 163, (7R,14R)-1-(difluoromethoxy)-11-(4-(dimethylamino)but-1-yn-1-yl)-6-(methyl-d3)-6,7-dihydro-7,14-methanobenzo[f]benzo[4,5]imidazo[1,2-a][1,4]diazocin-5(14H)-one] | 100 to 1000 nM | –
8 | [2H]C([2H])([2H])N1C(=O)c2cccc(OC(F)F)c2[C@H]2C[C@@H]1c1nc3ccc(C#CC4(C)CN(CCO)C4)cc3n12 [Example 164, (7R,14R)-1-(difluoromethoxy)-11-((1-(2-hydroxyethyl)-3-methylazetidin-3-yl)ethynyl)-6-(methyl-d3)-6,7-dihydro-7,14-methanobenzo[f]benzo[4,5]imidazo[1,2-a][1,4]diazocin-5(14H)-one] | 100 to 1000 nM | –
9 | [2H]C([2H])([2H])N1C(=O)c2cccc(OC(F)F)c2[C@H]2C[C@@H]1c1nc3ccc(C#CC4(C)CN(C(=O)C5(C)CC5)C4)cc3n12 [Example 165, (7R,14R)-1-(difluoromethoxy)-6-(methyl-d3)-11-((3-methyl-1-(1-methylcyclopropane-1-carbonyl)azetidin-3-yl)ethynyl)-6,7-dihydro-7,14-methanobenzo[f]benzo[4,5]imidazo[1,2-a][1,4]diazocin-5(14H)-one] | 100 to 1000 nM | –
10 | [2H]C([2H])([2H])N1C(=O)c2cccc(OC(F)F)c2[C@H]2C[C@@H]1c1nc3ccc(C#CC4CN(C(=O)C5(C)CC5)C4)cc3n12 [Example 166, (7R,14R)-1-(difluoromethoxy)-6-(methyl-d3)-11-((1-(1-methylcyclopropane-1-carbonyl)azetidin-3-yl)ethynyl)-6,7-dihydro-7,14-methanobenzo[f]benzo[4,5]imidazo[1,2-a][1,4]diazocin-5(14H)-one] | < 100 nM | –
11 | [2H]C([2H])([2H])N1C(=O)c2cccc(OC(F)F)c2[C@H]2C[C@@H]1c1nc3ccc(C#CC4(C)CN(C(=O)C(C)(C)C)C4)cc3n12 [Example 167, (7R,14R)-1-(difluoromethoxy)-6-(methyl-d3)-11-((3-methyl-1-pivaloylazetidin-3-yl)ethynyl)-6,7-dihydro-7,14-methanobenzo[f]benzo[4,5]imidazo[1,2-a][1,4]diazocin-5(14H)-one] | < 100 nM | –
12 | [2H]C([2H])([2H])N1C(=O)c2cccc(OC(F)F)c2[C@H]2C[C@@H]1c1nc3ccc(C#CC4CC4)c(F)c3n12 [Example 168, (7R,14R)-11-(cyclopropylethynyl)-1-(difluoromethoxy)-12-fluoro-6-(methyl-d3)-6,7-dihydro-7,14-methanobenzo[f]benzo[4,5]imidazo[1,2-a][1,4]diazocin-5(14H)-one] | 100 to 1000 nM | –
13 | [2H]C([2H])([2H])N1C(=O)c2cccc(OC(F)F)c2[C@H]2C[C@@H]1c1nc3ccc(C#C[C@H](C)O)cc3n12 [Example 169, (7R,14R)-1-(difluoromethoxy)-11-((S)-3-hydroxybut-1-yn-1-yl)-6-(methyl-d3)-6,7-dihydro-7,14-methanobenzo[f]benzo[4,5]imidazo[1,2-a][1,4]diazocin-5(14H)-one] | 100 to 1000 nM | –
14 | [2H]C([2H])([2H])N1C(=O)c2cccc(OC(F)F)c2[C@H]2C[C@@H]1c1nc3ccc(C#CC)c(F)c3n12 [Example 170, (7R,14R)-1-(difluoromethoxy)-12-fluoro-6-(methyl-d3)-11-(prop-1-yn-1-yl)-6,7-dihydro-7,14-methanobenzo[f]benzo[4,5]imidazo[1,2-a][1,4]diazocin-5(14H)-one] | < 100 nM | –
15 | [2H]C([2H])([2H])N1C(=O)c2cccc(OC(F)F)c2[C@H]2C[C@@H]1c1nc3ccc(C#CCNC(=O)C4CC4)cc3n12 [Example 171, N-(3-((7R,14R)-1-(difluoromethoxy)-6-(methyl-d3)-5-oxo-5,6,7,14-tetrahydro-7,14-methanobenzo[f]benzo[4,5]imidazo[1,2-a][1,4]diazocin-11-yl)prop-2-yn-1-yl)cyclopropanecarboxamide] | < 100 nM | –
16 | [2H]C([2H])([2H])N1C(=O)c2cccc(OC(F)F)c2[C@H]2C[C@@H]1c1nc3ccc(C#CCCl)cc3n12 [Example 172, (7R,14R)-11-(3-chloroprop-1-yn-1-yl)-1-(difluoromethoxy)-6-(methyl-d3)-6,7-dihydro-7,14-methanobenzo[f]benzo[4,5]imidazo[1,2-a][1,4]diazocin-5(14H)-one] | < 100 nM | –
17 | [2H]C([2H])([2H])N1C(=O)c2cccc(OC(F)F)c2[C@H]2C[C@@H]1c1nc3ccc(C#CC4CCN(C(C)=O)CC4)cc3n12 [Example 173, (7R,14R)-11-((1-acetylpiperidin-4-yl)ethynyl)-1-(difluoromethoxy)-6-(methyl-d3)-6,7-dihydro-7,14-methanobenzo[f]benzo[4,5]imidazo[1,2-a][1,4]diazocin-5(14H)-one] | < 100 nM | –
18 | [2H]C([2H])([2H])N1C(=O)c2cccc(OC(F)F)c2[C@H]2C[C@@H]1c1nc3ccc(C#CC4CCN(C(=O)C5CC5)CC4)cc3n12 [Example 174, (7R,14R)-11-((1-(cyclopropanecarbonyl)piperidin-4-yl)ethynyl)-1-(difluoromethoxy)-6-(methyl-d3)-6,7-dihydro-7,14-methanobenzo[f]benzo[4,5]imidazo[1,2-a][1,4]diazocin-5(14H)-one] | < 100 nM | –
19 | [2H]C([2H])([2H])N1C(=O)c2cccc(OC(F)F)c2[C@H]2C[C@@H]1c1nc3c(F)cc(C#CC4CC4)cc3n12 [Example 175, (7R,14R)-11-(cyclopropylethynyl)-1-(difluoromethoxy)-9-fluoro-6-(methyl-d3)-6,7-dihydro-7,14-methanobenzo[f]benzo[4,5]imidazo[1,2-a][1,4]diazocin-5(14H)-one] | < 100 nM | –
20 | [2H]C([2H])([2H])N1C(=O)c2cccc(OC(F)F)c2[C@H]2C[C@@H]1c1nc3ccc(C#CCOC4CCC4)cc3n12 [Example 176, (7R,14R)-11-(3-cyclobutoxyprop-1-yn-1-yl)-1-(difluoromethoxy)-6-(methyl-d3)-6,7-dihydro-7,14-methanobenzo[f]benzo[4,5]imidazo[1,2-a][1,4]diazocin-5(14H)-one] | – | 100 to 1000 nM
21 | [2H]C([2H])([2H])N1C(=O)c2cccc(OC(F)F)c2[C@H]2C[C@@H]1c1nc3ccc(C#CC4CC(C)(O)C4)cc3n12 (stereo partly drawn) [Example 177, (7R,14R)-1-(difluoromethoxy)-11-((3-hydroxy-3-methylcyclobutyl)ethynyl)-6-(methyl-d3)-6,7-dihydro-7,14-methanobenzo[f]benzo[4,5]imidazo[1,2-a][1,4]diazocin-5(14H)-one] | < 100 nM | –
22 | [2H]C([2H])([2H])N1C(=O)c2cccc(OC(F)F)c2[C@H]2C[C@@H]1c1nc3ccc(C#CC4(C)CN(CC(F)(F)F)C4)cc3n12 [Example 178, (7R,14R)-1-(difluoromethoxy)-6-(methyl-d3)-11-((3-methyl-1-(2,2,2-trifluoroethyl)azetidin-3-yl)ethynyl)-6,7-dihydro-7,14-methanobenzo[f]benzo[4,5]imidazo[1,2-a][1,4]diazocin-5(14H)-one] | 100 to 1000 nM | –
